# Test results from patent publication US20180353501A1 (Arvinas, Inc., priority 2017, published 2018).
# Where two headings read alike, the source gives them in different places.
# Legend:
# [1] = target: T1, MAK (Homo sapiens, UniProt P20794); assay: KINOMEscan in vitro kinase binding; details: screened at 1000 nM; lower number = stronger binding
# T1 construct: purchased DiscoverRx Corporation (KINOMEscan platform, service)
# Procedure: In Vitro Kinase Binding Affinity Determination for Example 1 and Example 2.
# (§1) PROTAC in vitro binding affinities (Kd) to c-Met was determined using the KINOMEscan™ platform (DiscoverRx Corporation). The compounds were solubilized in DMSO and sent to DiscoverRx Corporation as 10 μM stock solutions.
# Example 1 and Example 2 were screened at a 1000 nM concentration, and the results of the binding interactions are reported in “% Ctrl”, where a lower number indicates stronger binding. % Ctrl=[(test compound signal−positive control signal)/(negative control signal−positive control signal)]×100, wherein the negative control was DMSO.
# [2] = target: T2, MET (M1250T) (Homo sapiens, UniProt P08581, M1250T); assay: KINOMEscan in vitro kinase binding; details: screened at 1000 nM; lower number = stronger binding
# T2 construct: purchased DiscoverRx Corporation (KINOMEscan platform, service)
# Procedure: as §1
# [3] = target: T3, MET (Homo sapiens, UniProt P08581); assay: KINOMEscan in vitro kinase binding; details: screened at 1000 nM
# T3 construct: purchased DiscoverRx Corporation (KINOMEscan platform, service)
# Procedure: as §1
# [4] = target: T4, MET (Y1235D) (Homo sapiens, UniProt P08581, Y1235D); assay: KINOMEscan in vitro kinase binding; details: screened at 1000 nM; lower number = stronger binding
# T4 construct: purchased DiscoverRx Corporation (KINOMEscan platform, service)
# Procedure: as §1
# [5] = Pharmacokinetics of intraperitoneal or intravenous injection in CD1 mice (plasma, LC/MS/MS); format: in vivo; details: for concentration at 0.25 h / concentration at 0.5 h / concentration at 1 h / concentration at 2 h / concentration at 4 h / concentration at 8 h / concentration at 24 h / concentration at 0.033 h / concentration at 0.083 h: male, CD1, mouse, plasma
# Procedure: Pharmacokinetics of Intraperitoneal or Intravenous Injection of Example 1 or Example 2.
# The pharmacokinetics of Example 1 and 2 was examined for intraperitoneal and intravenous administration. The desired serial concentrations of working solutions were achieved by diluting stock solution (1 mg/mL in DMSO) of analyte with methanol. In particular, 20 μL of working solutions (1, 2, 5, 10, 50, 100, 500, 1000, 2000 ng/mL) were added to 20 μL of the blank CD1 mice plasma to achieve calibration standards of 1-2000 ng/mL (1, 2, 5, 10, 50, 100, 500, 1000, 2000 ng/mL) in a total volume of 40 pt. Dose of IV and IP were diluted by 1000 fold and 10000 with methanol, 20 μL of the diluted dose solutions were added to 20 μL of the blank CD1 mice plasma to achieve dose samples. Next, 40 μL standards and 40 μL dose samples were added to 20 μL of assay Internal Standard (100 ng/mL) and 200 μL of acetonitrile for precipitating protein respectively. Then the samples were vortexed for 30 seconds. After centrifugation at 4 degree Celsius, 4000 rpm for 15 min, the supernatant was diluted 3 times with water. Then, 10 μL of the diluted supernatant was injected into the LC/MS/MS system for quantitative analysis.
# Examples 1 and 2 were administered intravenously (5 second injection of 10% HP-b-CD and 40 mM sodium acetate and 40 mM NaCl in water, pH4.5) or intraperitoneally (5% EtOH and 5% Solutol HS15 in D5W(ESD-2)) to 6-8 week old male CD1 mice (3 mice per treatment group for a total of 12 mice) at the time points indicated below in Table 3. The mice had free access to food and water.
# Dorsal metatarsal vein samples (30 μL), except that the final sample was acquired via a heart puncture, were taken from the mice at the same the administration time points as shown in Table 2.
# The data for Example 1 is shown below in FIG. 5 and Tables 5 (FIG. 6), 6 and 7. The data for Example 2 is shown in FIG. 7 and Tables 8 (FIG. 8), 9, and 10.
# [6] = ip, 10 mg/kg, IP 10 mg/kg, read-out: Conc. Mean
# [7] = ip, 10 mg/kg, IP 10 mg/kg, read-out: Conc. Mouse 1
# [8] = ip, 10 mg/kg, IP 10 mg/kg, read-out: Conc. Mouse 2
# [9] = ip, 10 mg/kg, IP 10 mg/kg, read-out: Conc. Mouse 3
# [10] = iv, 1 mg/kg, IV 1.0 mg/kg, read-out: Conc. Mean
# [11] = iv, 1 mg/kg, IV 1.0 mg/kg, read-out: Conc. Mouse 1
# [12] = iv, 1 mg/kg, IV 1.0 mg/kg, read-out: Conc. Mouse 2
# [13] = iv, 1 mg/kg, IV 1.0 mg/kg, read-out: Conc. Mouse 3
# T1 sequence (P20794 whole entry): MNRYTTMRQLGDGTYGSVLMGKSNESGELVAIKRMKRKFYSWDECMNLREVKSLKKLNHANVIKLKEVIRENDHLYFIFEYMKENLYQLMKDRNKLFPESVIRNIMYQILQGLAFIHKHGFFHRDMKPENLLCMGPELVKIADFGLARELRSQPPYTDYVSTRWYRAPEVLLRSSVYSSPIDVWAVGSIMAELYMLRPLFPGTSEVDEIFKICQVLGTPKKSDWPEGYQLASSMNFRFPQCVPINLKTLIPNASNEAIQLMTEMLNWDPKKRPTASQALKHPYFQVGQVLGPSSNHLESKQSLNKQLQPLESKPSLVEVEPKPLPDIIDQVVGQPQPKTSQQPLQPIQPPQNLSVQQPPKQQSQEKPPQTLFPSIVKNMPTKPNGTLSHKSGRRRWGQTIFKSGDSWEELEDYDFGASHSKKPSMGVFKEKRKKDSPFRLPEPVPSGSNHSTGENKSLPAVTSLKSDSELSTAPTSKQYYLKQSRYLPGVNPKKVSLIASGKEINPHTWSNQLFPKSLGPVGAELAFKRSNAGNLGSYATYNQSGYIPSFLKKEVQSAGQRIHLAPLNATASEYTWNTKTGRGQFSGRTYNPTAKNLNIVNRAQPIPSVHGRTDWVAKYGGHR
smiles,measurement,setting,value
COc1cc2c(Oc3ccc(NC(=O)C4(C(=O)Nc5ccc(F)cc5)CC4)cc3F)ccnc2cc1OCCCOCCCOCCC(=O)N[C@H](C(=O)N1C[C@H](O)C[C@H]1C(=O)NCc1ccc(-c2scnc2C)cc1)C(C)(C)C [Example 1],% Ctrl,[1],92 % Ctrl
same,% Ctrl,[2],6.0 % Ctrl
same,binding to MET (in words),[3],strong binding to MET
same,% Ctrl,[3]; lower number = stronger binding,0.75 % Ctrl
same,% Ctrl,[4],8.2 % Ctrl
same,Conc. Mouse 1,"[5]; IV 1.0 mg/kg, 24 h",BLOQ
same,Conc. Mouse 2,"[5]; IV 1.0 mg/kg, 24 h",BLOQ
same,concentration at 0.25 h,[5]; [6],2200 ng/mL
same,concentration at 0.25 h,[5]; [7],3420 ng/mL
same,concentration at 0.25 h,[5]; [8],2180 ng/mL
same,concentration at 0.25 h,[5]; [9],990 ng/mL
same,concentration at 0.5 h,[5]; [6],3310 ng/mL
same,concentration at 0.5 h,[5]; [7],5210 ng/mL
same,concentration at 0.5 h,[5]; [8],2500 ng/mL
same,concentration at 0.5 h,[5]; [9],2210 ng/mL
same,concentration at 1 h,[5]; [6],5530 ng/mL
same,concentration at 1 h,[5]; [7],4470 ng/mL
same,concentration at 1 h,[5]; [8],9060 ng/mL
same,concentration at 1 h,[5]; [9],3050 ng/mL
same,concentration at 2 h,[5]; [6],7500 ng/mL
same,concentration at 2 h,[5]; [7],5740 ng/mL
same,concentration at 2 h,[5]; [8],6210 ng/mL
same,concentration at 2 h,[5]; [9],10500 ng/mL
same,concentration at 4 h,[5]; [6],4520 ng/mL
same,concentration at 4 h,[5]; [7],6340 ng/mL
same,concentration at 4 h,[5]; [8],3740 ng/mL
same,concentration at 4 h,[5]; [9],3460 ng/mL
same,concentration at 8 h,[5]; [6],411 ng/mL
same,concentration at 8 h,[5]; [7],476 ng/mL
same,concentration at 8 h,[5]; [8],329 ng/mL
same,concentration at 8 h,[5]; [9],429 ng/mL
same,concentration at 24 h,"[5]; ip, 10 mg/kg, IP 10 mg/kg, 24 h, read-out: Conc. Mean",12.3 ng/mL
same,concentration at 24 h,"[5]; ip, 10 mg/kg, IP 10 mg/kg, 24 h, read-out: Conc. Mouse 1",12.2 ng/mL
same,concentration at 24 h,"[5]; ip, 10 mg/kg, IP 10 mg/kg, 24 h, read-out: Conc. Mouse 2",9.43 ng/mL
same,concentration at 24 h,"[5]; ip, 10 mg/kg, IP 10 mg/kg, 24 h, read-out: Conc. Mouse 3",15.1 ng/mL
same,concentration at 0.033 h,[5]; [10],2350 ng/mL
same,concentration at 0.033 h,[5]; [11],2050 ng/mL
same,concentration at 0.033 h,[5]; [12],2820 ng/mL
same,concentration at 0.033 h,[5]; [13],2190 ng/mL
same,concentration at 0.083 h,[5]; [10],1530 ng/mL
same,concentration at 0.083 h,[5]; [11],1200 ng/mL
same,concentration at 0.083 h,[5]; [12],1810 ng/mL
same,concentration at 0.083 h,[5]; [13],1590 ng/mL
same,concentration at 0.25 h,[5]; [10],691 ng/mL
same,concentration at 0.25 h,[5]; [11],491 ng/mL
same,concentration at 0.25 h,[5]; [12],991 ng/mL
same,concentration at 0.25 h,[5]; [13],590 ng/mL
same,concentration at 0.5 h,[5]; [10],397 ng/mL
same,concentration at 0.5 h,[5]; [11],280 ng/mL
same,concentration at 0.5 h,[5]; [12],497 ng/mL
same,concentration at 0.5 h,[5]; [13],413 ng/mL
same,concentration at 1 h,[5]; [10],143 ng/mL
same,concentration at 1 h,[5]; [11],142 ng/mL
same,concentration at 1 h,[5]; [12],135 ng/mL
same,concentration at 1 h,[5]; [13],153 ng/mL
same,concentration at 2 h,[5]; [10],70.3 ng/mL
same,concentration at 2 h,[5]; [11],55.5 ng/mL
same,concentration at 2 h,[5]; [12],92.9 ng/mL
same,concentration at 2 h,[5]; [13],62.3 ng/mL
same,concentration at 4 h,[5]; [10],15.4 ng/mL
same,concentration at 4 h,[5]; [11],16.8 ng/mL
same,concentration at 4 h,[5]; [12],15.4 ng/mL
same,concentration at 4 h,[5]; [13],13.9 ng/mL
same,concentration at 8 h,[5]; [10],8.6 ng/mL
same,concentration at 8 h,[5]; [11],10.1 ng/mL
same,concentration at 8 h,[5]; [12],10.6 ng/mL
same,concentration at 8 h,[5]; [13],5.2 ng/mL
same,concentration at 24 h,"[5]; iv, 1 mg/kg, IV 1.0 mg/kg, 24 h, read-out: Conc. Mouse 3",0.971 ng/mL
